Usually tissue uptake stands for the share of the injected amount in each gram of the tissue. A word on the Ki: it is the dissociation constant of the complex between target and ligand, obtained from inhibition or displacement.

The structures appear in SMILES notation.

Here are results for three compounds from article PMC6753210, “^18F-Labeled Cyclized α-Melanocyte-Stimulating Hormone Derivatives for Imaging Human Melanoma Xenograft with Positron Emission Tomography” (Scientific Reports, 2019).

The test system of data set [1] is SK-MEL-1 human melanoma xenografts. Kind of data set: Biodistribution in NSG mice bearing human SK-MEL-1 melanoma xenografts. Particulars: 1 h p.i. Type of data set: in vivo, mouse. On the procedure:
(§1) All animal experiments were conducted in according to the guidelines established by Canadian Council on Animal Care and approved by Animal Ethics Committee of the University of British Columbia. Male C57BL/6 J and immunodeficient NSG mice were obtained from an in-house breeding colony at the BC Cancer Research Centre. For tumor implantation, mice were anesthetized by inhalation with 2% isoflurane, 1 × 10^6 B16-F10 and 5 × 10^6 SK-MEL-1 cells were inoculated subcutaneously on the right dorsal flank of C57BL/6J and NSG mice, respectively. Mice were used for imaging or biodistribution studies when the tumors reached 6–8 mm in diameter.
(§2) μPET/μCT imaging and biodistribution experiments were performed on a μPET/μCT scanner (Inveon, Siemens) using previously published procedures. Briefly, tumor-bearing mice were injected with approximately 3.0–5.0 MBq (for imaging) or <1.5 MBq (for biodistribution) of radiolabeled peptides via tail vein under sedation (2% isoflurane inhalation). For [^18F]FDG imaging and biodistribution, mice underwent fasting overnight prior to the experiments. Imaging studies were performed in duplicate or triplicate. […] After injection, mice were allowed to recover and roam freely in their cages. At 1 or 2 h p.i., mice were anesthetized again and positioned in the scanner. A baseline CT scan was obtained for localization and attenuation correction, followed by a 10–15 min static μPET scan. For biodistribution studies, mice were euthanized by CO2 inhalation, blood was withdrawn promptly, and the tissues of interest were harvested, rinsed, and blotted dry. All tissues were weighed and the radioactivity of the collected samples was measured using a WIZARD 2480 gamma counter.

Assay in data set [2]: as above
Type of data set: in vivo, mouse. Particulars: male, NSG, mouse, SK-MEL-1 tumor, iv, total radioactivity, 1 h p.i., n = 4. On the procedure: as §1, §2

A further data set concerns the target T1, MC1R (Mus musculus, UniProt Q01727).
T1 construct: endogenous in cells; host or cells: B16-F10 mouse melanoma cells
Put plainly: In vitro competition binding assay with [^125I]NDP-αMSH on B16-F10 cells. Particulars: 0.1 nM [^125I]NDP-αMSH, 25 °C, 1 h, n = 3. On the procedure: Receptor binding affinity of CCZ01096 was assessed using previously published procedures. Briefly, approximately 500,000 B16-F10 cells/well were seeded onto 24 well poly-D-lysine plates overnight. The cells were washed with PBS and the growth media was replaced by the reaction buffer described above. Increasing concentrations of non-radioactive CCZ01096 (0.5 pM to 5 μM) along with 0.1 nM of [^125I]NDP-αMSH were also added. The reaction mixture was incubated at 25 °C with moderate agitation for 1 h. Cells were washed with ice-cold PBS, harvested, and measured for radioactivity on a WIZARD 2480 gamma counter.

Setting [3] is: NSG mice, SK-MEL-1 xenograft, unblocked, n = 5 ([^18F]FDG n = 4).

T1 sequence (Q01727 whole entry): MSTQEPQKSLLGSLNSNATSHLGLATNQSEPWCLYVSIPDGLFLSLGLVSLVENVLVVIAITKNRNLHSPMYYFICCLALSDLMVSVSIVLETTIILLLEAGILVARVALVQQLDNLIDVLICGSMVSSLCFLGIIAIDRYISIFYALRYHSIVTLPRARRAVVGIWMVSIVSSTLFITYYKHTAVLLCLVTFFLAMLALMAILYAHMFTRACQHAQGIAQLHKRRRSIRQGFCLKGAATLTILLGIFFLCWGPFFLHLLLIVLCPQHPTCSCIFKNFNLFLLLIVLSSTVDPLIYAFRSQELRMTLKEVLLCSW

With `OC[C@H]1OC(O)[C@H]([18F])[C@@H](O)[C@@H]1O` (stereo partly drawn) [[^18F]FDG, 2-[^18F]fluorodeoxyglucose], in data set [1] (setting [3]), the Adrenal glands uptake was 2.05±0.28 %ID/g, the Blood uptake amounted to 0.95±0.27 %ID/g, the Bone uptake is given as 0.86 ± 0.35 %ID/g and the Brain uptake was determined as 9.54 ± 1.69 %ID/g. Also, in data set [1] (setting [3]), the Fat uptake is given as 0.86±0.21 %ID/g, the Heart uptake was found to be 8.80 ± 4.42 %ID/g, the Intestines uptake stood at 3.95 ± 0.16 %ID/g and the Kidneys uptake was determined as 3.01±0.28 %ID/g. In data set [1] (setting [3]), this compound showed a Liver uptake of 1.48±0.14 %ID/g, a Lungs uptake of 3.42±0.40 %ID/g, a Muscle uptake of 1.75 ± 0.54 %ID/g and a Pancreas uptake of 1.41±0.20 %ID/g. In data set [1] (setting [3]), this compound gave a Seminal glands uptake of 4.63 ± 0.57 %ID/g, a Spleen uptake of 3.59±0.68 %ID/g, a Stomach uptake of 1.00±0.11 %ID/g and a Testes uptake of 1.15±1.03 %ID/g. In data set [1] (setting [3]), the Thyroid uptake was 2.72±0.13 %ID/g, the Tumor/Blood ratio is 7.64±2.06, the Tumor/Bone ratio amounted to 8.83±2.62 and the Tumor/Kidneys ratio is given as 2.30±0.04. For the same compound, the Tumor/Muscle ratio in data set [1] (setting [3]) was 4.22±1.30. In data set [1] (NSG mice, SK-MEL-1 xenograft, tail vein, unblocked, gamma counter, n = 5 ([^18F]FDG n = 4)), this compound returned an SK-MEL-1 tumor uptake of 6.91 ± 0.66 %ID/g.
On to `CCCC[C@H](NC(=O)CN1CCC(NC(=O)CN2CCN(CC(=O)O)CCN(CC(=O)O)CCN(CC(=O)O)CC2)CC1)C(=O)N[C@H]1CC(=O)NCCCC[C@@H](C(N)=O)NC(=O)[C@H](Cc2c[nH]c3ccccc23)NC(=O)[C@H](CCCNC(=N)N)NC(=O)[C@@H](Cc2ccccc2)NC(=O)[C@H](Cc2c[nH]cn2)NC1=O` [[^68Ga]Ga-CCZ01048, metal not drawn], for which the tissue uptake at 1 h in data set [2] (5.9 pmol, without co-injection, total injected peptide mass 5.9 ± 0.90 pmol) stood at 6.15 ± 0.22 %ID/g; in data set [2] (co-injection of 20 pmol ^natGa-CCZ01048, total peptide mass 27.5 ± 0.6 pmol) it was 2.66 ± 0.22 %ID/g; in data set [2] (co-injection of 50 pmol ^natGa-CCZ01048, total peptide mass 57.3 ± 1.0 pmol) it was 1.31 ± 0.13 %ID/g; in data set [2] (co-injection of 100 pmol ^natGa-CCZ01048, total peptide mass 109 ± 1.0 pmol), 1.04 ± 0.17 %ID/g. For the same compound, the “Reduction of tumor uptake” value in data set [1] (co-injection of 20 pmol ^natGa-CCZ01048 vs none) is recorded as 57%; in data set [1] (co-injection of 50 pmol ^natGa-CCZ01048 vs none), 79%; in data set [1] (co-injection of 100 pmol ^natGa-CCZ01048 vs none), 83%.
On MC1R, `CCCC[C@H](NC(=O)CN1CCC(NC(=O)C(CCCCNC(=O)Cn2cc(C[N+](C)(C)C[B-](F)(F)F)nn2)NC(=O)Cn2cc(C[N+](C)(C)C[B-](F)(F)F)nn2)CC1)C(=O)N[C@H]1CC(=O)NCCCC[C@@H](C(N)=O)NC(=O)[C@H](Cc2c[nH]c3ccccc23)NC(=O)[C@H](CCCNC(=N)N)NC(=O)[C@@H](Cc2ccccc2)NC(=O)[C@H](Cc2c[nH]cn2)NC1=O` (stereo partly drawn) [CCZ01096] showed a Ki of 0.51 ± 0.08 nM.
